The text below walks through data of ChEMBL document CHEMBL4138153, “Synthesis, monoamine oxidase inhibition activity and molecular docking studies of novel 4-hydroxy-N'-[benzylidene or 1-phenylethylidene]-2-H/methyl/benzyl-1,2-benzothiazine-3-carbohydrazide 1,1-dioxides” (Eur J Med Chem, 2018).

For data set [1], the target named is T1, Amine oxidase [flavin-containing] B (Rattus norvegicus, UniProt P19643).
T1 sequence (P19643 whole entry): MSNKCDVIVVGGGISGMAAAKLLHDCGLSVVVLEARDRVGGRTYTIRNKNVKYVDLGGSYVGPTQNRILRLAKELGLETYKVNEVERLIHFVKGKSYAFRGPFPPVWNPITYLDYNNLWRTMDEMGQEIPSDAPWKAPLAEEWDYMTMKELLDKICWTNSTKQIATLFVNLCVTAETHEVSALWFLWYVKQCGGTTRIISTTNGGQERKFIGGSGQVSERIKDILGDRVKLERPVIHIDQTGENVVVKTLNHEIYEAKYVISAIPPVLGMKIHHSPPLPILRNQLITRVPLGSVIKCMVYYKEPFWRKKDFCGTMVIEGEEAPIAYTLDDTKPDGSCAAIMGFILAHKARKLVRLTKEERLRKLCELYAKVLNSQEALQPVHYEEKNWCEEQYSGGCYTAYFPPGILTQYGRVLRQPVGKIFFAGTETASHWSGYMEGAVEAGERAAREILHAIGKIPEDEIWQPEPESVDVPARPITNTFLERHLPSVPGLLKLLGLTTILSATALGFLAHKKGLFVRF
In words: Inhibition of MAO-B in rat liver mitochondria using p-tyramine as substrate preincubated for 10 mins followed by substrate addition measured after 30 mins in presence of MAO-A inhibitor clorgyline by Amplex red dye-based fluorescence assay.

For data set [2], the target named is T2, Amine oxidase [flavin-containing] A (Rattus norvegicus, UniProt P21396).
T2 sequence (P21396 whole entry): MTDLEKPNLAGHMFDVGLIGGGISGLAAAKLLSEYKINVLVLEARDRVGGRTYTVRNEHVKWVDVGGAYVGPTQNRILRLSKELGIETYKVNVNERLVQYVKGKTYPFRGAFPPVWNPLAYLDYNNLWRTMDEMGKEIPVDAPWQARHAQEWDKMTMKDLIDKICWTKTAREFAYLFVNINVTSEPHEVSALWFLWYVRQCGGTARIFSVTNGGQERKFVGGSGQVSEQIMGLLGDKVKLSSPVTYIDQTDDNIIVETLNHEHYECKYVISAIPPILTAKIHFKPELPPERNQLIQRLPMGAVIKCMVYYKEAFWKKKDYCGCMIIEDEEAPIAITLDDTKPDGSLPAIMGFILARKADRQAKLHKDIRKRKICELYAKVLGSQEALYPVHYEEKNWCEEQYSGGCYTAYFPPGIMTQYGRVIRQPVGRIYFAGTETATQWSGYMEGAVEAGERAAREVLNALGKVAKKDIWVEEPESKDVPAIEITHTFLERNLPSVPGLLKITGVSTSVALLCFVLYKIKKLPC
Kind of data set: Competitive inhibition of MAO-A in rat liver mitochondria using p-tyramine as substrate up to 0.15 uM preincubated for 10 mins followed by substrate addition measured after 30 mins by Lineweaver-burk plot analysis. As to conditions: 0.5 h; call rule not given here.

For data set [3], the species on record is Rattus norvegicus. Kind of data set: Selectivity index, ratio of IC50 for MAO-A in rat liver mitochondria to IC50 for MAO-B in rat liver mitochondria.
For data set [4], the target named is T2, Amine oxidase [flavin-containing] A. Kind of data set: Inhibition of MAO-A in rat liver mitochondria using p-tyramine as substrate preincubated for 10 mins followed by substrate addition measured after 30 mins in presence of MAO-B inhibitor deprenyl by Amplex red dye-based fluorescence assay.

As a reminder, the IC50 is the concentration that inhibits the measured activity by half. Consider `C/C(=N\NC(=O)C1=C(O)c2ccccc2S(=O)(=O)N1)c1ccccc1`, for which the IC50 in data set [1] came to 3.33 µM; in data set [4], 0.11 µM. Further, the “inhibition (INH)” value in data set [2] is listed as “Active”. Further, in data set [3], the Ratio IC50 amounted to 0.03.
